The values that follow come from the supplement of paper PMC10307832.

Holding throughout (assay): relative viability (nuclei count vs DMSO), 5 days (fraction); higher = more cells survive
Compound in assay [1]: N#CC[C@H](C1CCCC1)n1cc(-c2ncnc3[nH]ccc23)cn1 [Ruxolitinib] + C[C@@H](Oc1cc(-c2cnn(C3CCNCC3)c2)cnc1N)c1c(Cl)ccc(F)c1Cl [Crizotinib] (partner 1 µM)
The method, boiled down: (§1)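 Relative viability was taken as the ratio of nuclei in treated wells to nuclei in vehicle wells. Lung cancer cell lines in 1536-well plates received compounds by pin tool one day after seeding, either one drug alone or a fixed anchor-drug dose plus five library-drug doses (not always all listed) in √10 steps. Nuclei were counted on 4× images after 5 days of treatment, and values are medians of duplicate plates.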

Compound in assay [2]: CS(=O)(=O)c1ccc(-c2cnc(N)c(C(=O)Nc3ccccc3)n2)cc1 [VE-821] + Nc1ncn([C@H]2C[C@H](O)[C@@H](CO)O2)c(=O)n1 [Decitabine] (partner 2 µM)
The method, boiled down: as §1

Compound in assay [3]: CS(=O)(=O)c1ccc(C(=O)Nc2ccc(Cl)c(-c3ccccn3)c2)c(Cl)c1 [Vismodegib] + O=C(c1cc(Cc2n[nH]c(=O)c3ccccc23)ccc1F)N1CCN(C(=O)C2CC2)CC1 [Olaparib] (partner 8 µM)
The method, boiled down:
as §1

Compound in assay [4]: N#CC[C@H](C1CCCC1)n1cc(-c2ncnc3[nH]ccc23)cn1 [Ruxolitinib] + C[C@]1(O)C[C@@H](c2nc(-c3ccc4ccc(-c5ccccc5)nc4c3)c3c(N)nccn32)C1 [Linsitinib] (partner 1 µM)
The method, boiled down: as §1

On to NCI-H3122, for which the relative viability in assay [1] (first compound 0.08 µM) is 0.332; in assay [1] (first compound 0.253 µM) it was 0.269; in assay [1] (first compound 0.8 µM), 0.282; in assay [1] (first compound 2.53 µM) it was 0.312; in assay [1] (first compound 8 µM), 0.282; in assay [2] (first compound 0.08 µM), 0.474. Moreover, the relative viability worked out at 0.482 in assay [2] (first compound 0.253 µM); 0.485 in assay [2] (first compound 0.8 µM); 0.46 in assay [2] (first compound 2.53 µM); 0.428 in assay [2] (first compound 8 µM); 0.613 in assay [3] (first compound 0.08 µM); 0.598 in assay [3] (first compound 0.253 µM). Moreover, the relative viability in assay [3] (first compound 0.8 µM) worked out at 0.614; in assay [3] (first compound 2.53 µM) it was 0.664; in assay [3] (first compound 8 µM) it was 0.65; in assay [4] (first compound 0.08 µM) it was 1.09; in assay [4] (first compound 0.253 µM), 1.06; in assay [4] (first compound 0.8 µM), 1.02. Besides, the figures for the relative viability in assay [4] (first compound 2.53 µM) and in assay [4] (first compound 8 µM) were 0.815 and 1.04, respectively.

Turning to PC-3 [JPC-3], the relative viability in assay [1] (first compound 0.08 µM) came out at 0.886; in assay [1] (first compound 0.253 µM) it was 1; in assay [1] (first compound 0.8 µM), 0.998; in assay [1] (first compound 2.53 µM), 1.01; in assay [1] (first compound 8 µM) it was 0.874; in assay [2] (first compound 0.08 µM) it was 0.87. In addition, the relative viability is 0.832 in assay [2] (first compound 0.253 µM); 0.95 in assay [2] (first compound 0.8 µM); 0.912 in assay [2] (first compound 2.53 µM); 0.799 in assay [2] (first compound 8 µM); 1.09 in assay [3] (first compound 0.08 µM); 1.11 in assay [3] (first compound 0.253 µM). For the same cell line, the relative viability came to 1.03 in assay [3] (first compound 0.8 µM); 1.09 in assay [3] (first compound 2.53 µM); 1.17 in assay [3] (first compound 8 µM); 0.882 in assay [4] (first compound 0.08 µM); 0.973 in assay [4] (first compound 0.253 µM); 0.973 in assay [4] (first compound 0.8 µM). Further, the relative viability in assay [4] (first compound 2.53 µM) stood at 0.963; in assay [4] (first compound 8 µM) it was 0.872.

Turning to PC-14, the relative viability in assay [1] (first compound 0.253 µM) worked out at 0.949; in assay [1] (first compound 0.8 µM), 0.883; in assay [1] (first compound 2.53 µM) it was 0.819; in assay [1] (first compound 8 µM), 0.655; in assay [2] (first compound 0.08 µM) it was 0.221; in assay [2] (first compound 0.253 µM), 0.241. For the same cell line, the relative viability in assay [2] (first compound 0.8 µM) is 0.222; in assay [2] (first compound 2.53 µM), 0.213; in assay [2] (first compound 8 µM) it was 0.126; in assay [3] (first compound 0.08 µM), 0.262; in assay [3] (first compound 0.253 µM), 0.175; in assay [3] (first compound 0.8 µM) it was 0.254. Further, the relative viability was 0.248 in assay [3] (first compound 2.53 µM); 0.254 in assay [3] (first compound 8 µM); 0.959 in assay [4] (first compound 0.253 µM); 1.04 in assay [4] (first compound 0.8 µM); 0.794 in assay [4] (first compound 2.53 µM); 0.69 in assay [4] (first compound 8 µM).

RERF-LC-KJ: the relative viability turned out to be 0.863 in assay [1] (first compound 0.08 µM); 0.868 in assay [1] (first compound 0.253 µM); 0.864 in assay [1] (first compound 0.8 µM); 0.827 in assay [1] (first compound 2.53 µM); 0.687 in assay [1] (first compound 8 µM); 0.731 in assay [2] (first compound 0.08 µM). Moreover, the relative viability in assay [2] (first compound 0.253 µM) was determined as 0.681; in assay [2] (first compound 0.8 µM), 0.633; in assay [2] (first compound 2.53 µM) it was 0.725; in assay [2] (first compound 8 µM), 0.609; in assay [3] (first compound 0.08 µM), 0.985; in assay [3] (first compound 0.253 µM) it was 0.826. The relative viability in assay [3] (first compound 0.8 µM) was 0.785; in assay [3] (first compound 2.53 µM), 0.862; in assay [3] (first compound 8 µM), 0.96; in assay [4] (first compound 0.08 µM) it was 0.883; in assay [4] (first compound 0.253 µM), 0.812; in assay [4] (first compound 0.8 µM) it was 0.877. The relative viability was 0.904 in assay [4] (first compound 2.53 µM) and 0.634 in assay [4] (first compound 8 µM).

Consider SK-LU-1, for which the relative viability in assay [1] (first compound 0.08 µM) amounted to 1.01; in assay [1] (first compound 0.253 µM) it was 1; in assay [1] (first compound 0.8 µM) it was 1.08; in assay [1] (first compound 2.53 µM), 0.847; in assay [1] (first compound 8 µM), 0.584; in assay [2] (first compound 0.08 µM), 0.684. The relative viability stood at 0.671 in assay [2] (first compound 0.253 µM); 0.522 in assay [2] (first compound 0.8 µM); 0.612 in assay [2] (first compound 2.53 µM); 0.475 in assay [2] (first compound 8 µM); 0.343 in assay [3] (first compound 0.08 µM); 0.451 in assay [3] (first compound 0.253 µM). Also, the relative viability turned out to be 0.481 in assay [3] (first compound 0.8 µM); 0.469 in assay [3] (first compound 2.53 µM); 0.522 in assay [3] (first compound 8 µM); 1.16 in assay [4] (first compound 0.08 µM); 1.19 in assay [4] (first compound 0.253 µM); 1.27 in assay [4] (first compound 0.8 µM). The relative viability in assay [4] (first compound 2.53 µM) is 0.974; in assay [4] (first compound 8 µM), 0.945.

SK-MES-1: the relative viability in assay [1] (first compound 0.08 µM) is 1.03; in assay [1] (first compound 0.253 µM), 0.984; in assay [1] (first compound 0.8 µM) it was 1.02; in assay [1] (first compound 2.53 µM), 0.925; in assay [1] (first compound 8 µM) it was 0.702; in assay [2] (first compound 0.08 µM), 0.373. The relative viability in assay [2] (first compound 0.253 µM) was determined as 0.406; in assay [2] (first compound 0.8 µM), 0.38; in assay [2] (first compound 2.53 µM) it was 0.361; in assay [2] (first compound 8 µM) it was 0.284; in assay [3] (first compound 0.08 µM) it was 0.701; in assay [3] (first compound 0.253 µM), 0.656. Besides, the relative viability is 0.62 in assay [3] (first compound 0.8 µM); 0.707 in assay [3] (first compound 2.53 µM); 0.685 in assay [3] (first compound 8 µM); 1.15 in assay [4] (first compound 0.08 µM); 1.02 in assay [4] (first compound 0.253 µM); 1.04 in assay [4] (first compound 0.8 µM). Further, the relative viability in assay [4] (first compound 2.53 µM) turned out to be 0.866; in assay [4] (first compound 8 µM) it was 0.622.

In the case of SW 1573, the relative viability in assay [1] (first compound 0.08 µM) turned out to be 0.887; in assay [1] (first compound 0.253 µM), 0.75; in assay [1] (first compound 0.8 µM), 0.969; in assay [1] (first compound 2.53 µM), 0.791; in assay [1] (first compound 8 µM) it was 0.733; in assay [2] (first compound 0.08 µM), 0.538. The relative viability came out at 0.458 in assay [2] (first compound 0.253 µM); 0.433 in assay [2] (first compound 0.8 µM); 0.511 in assay [2] (first compound 2.53 µM); 0.416 in assay [2] (first compound 8 µM); 0.487 in assay [3] (first compound 0.253 µM); 0.476 in assay [3] (first compound 0.8 µM). The relative viability was 0.442 in assay [3] (first compound 2.53 µM); 0.497 in assay [3] (first compound 8 µM); 0.948 in assay [4] (first compound 0.08 µM); 0.669 in assay [4] (first compound 0.253 µM); 0.848 in assay [4] (first compound 0.8 µM); 0.707 in assay [4] (first compound 2.53 µM). In assay [4] (first compound 8 µM), the relative viability stood at 0.534.
